From patent publication US7851641B2, “Compounds useful for treating neurodegenerative disorders” (Satori Pharmaceuticals, Inc., priority 2005, dated 2010)

Legend:
[1] = system: amyloid-β (1-42) peptide; assay: IP-MS quantification of amyloid-β peptides in 7W cells (APPwt) and 7PA2 cells (APPV717F); format: cell-based; settings: FIG. 22
Procedure: (§1) Compounds of the present invention were assayed to determine their effect on the total ration of amyloid-β (1-42) peptide in vitro using an assay protocol substantially similar to that described by Wang et al, J. Biol. Chem. 1996, 50:31894-31902, The Profile of Soluble Amyloid β Protein in Cultured Cell Media, the entirety of which is hereby incorporated herein by reference. This assay quantifies amyloid-β protein using immunoprecipitation and mass spectrometry (IP-MS).
Compound 6 was also assayed according to the method described in Wang et al, in 7W cells (APPwt) and 7PA2 cells (APPV717F). The APP717 mutations increase the relative amount of amyloid-β (1-42) peptide. In this assay, it was shown that compound 6 reduces amyloid-β (1-42) peptide while increasing amyloid-β (1-39) peptide.

[2] = system: amyloid-β (1-42) peptide; assay: IP-MS quantification of amyloid-β peptides (Wang et al protocol); format: cell-based; settings: in vitro, FIG. 21
Procedure: as §1

Q: What does the source list for `CC(=O)O[C@@H]([C@H]1C[C@@H](C)C2=C(O1)[C@H](O)[C@@]1(C)[C@@H]3CC[C@H]4C(C)(C)[C@@H](O[C@@H]5OC[C@@H](O)[C@H](O)[C@H]5O)CC[C@@]45C[C@@]35CC[C@]21C)C(C)(C)O` [Compound 6, 24-O-Acetylhydroshengmanol 3-β-D-xylopyranoside (delta-16,17)-enol ether]?
A: effect on amyloid-β (1-39) peptide [1]: increasing; effect on amyloid-β (1-42) peptide [1]: reduces; effect on amyloid-β (1-37) peptide [2]: increasing; effect on amyloid-β (1-39) peptide [2]: increasing; effect on amyloid-β (1-42) peptide [2]: reduced
